Laboratory results from patent publication US11084781B2, “Diarylureas as CB1 allosteric modulators” (Research Triangle Institute, priority 2017, dated 2021).
Read-outs that look alike come from different tables or passages of the source.

Assays:
human CB1 receptor [1] = biological target: T1, human CB1 receptor (Homo sapiens, UniProt P21554); test: CB1 calcium mobilization assay (antagonist mode, against EC80 of CP55,940); type: cell-based
T1 construct: host or cells: CHO-RD-HGA16 cells (CHO cells overexpressing promiscuous Galpha16)
T1 sequence (P21554 whole entry): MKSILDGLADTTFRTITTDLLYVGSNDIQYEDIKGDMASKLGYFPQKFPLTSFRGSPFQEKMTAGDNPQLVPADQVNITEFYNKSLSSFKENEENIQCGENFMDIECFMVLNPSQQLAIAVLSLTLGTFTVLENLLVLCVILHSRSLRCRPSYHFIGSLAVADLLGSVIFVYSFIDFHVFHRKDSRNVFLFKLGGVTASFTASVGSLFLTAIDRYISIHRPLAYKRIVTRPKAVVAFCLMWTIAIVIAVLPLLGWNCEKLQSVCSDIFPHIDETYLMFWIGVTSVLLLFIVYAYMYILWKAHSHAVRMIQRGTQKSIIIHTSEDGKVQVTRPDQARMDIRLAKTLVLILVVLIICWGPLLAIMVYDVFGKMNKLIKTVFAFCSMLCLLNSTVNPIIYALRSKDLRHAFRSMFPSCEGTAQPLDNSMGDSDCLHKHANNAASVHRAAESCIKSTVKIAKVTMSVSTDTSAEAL
Method: CHO-RD-HGA16 cells (Molecular Devices, CA) stably expressing the human CB1 receptor were plated into 96-well black-walled assay plates at 25,000 cells/well in 100 μL of Ham's F12 (supplemented with 10% fetal bovine serum, 100 units of penicillin/streptomycin, and 100 μg/mL Normocin) and incubated overnight at 37° C., 5% CO2. Calcium 5 dye (Molecular Devices, CA) was reconstituted according to the manufacturer's instructions. The reconstituted dye was diluted 1:40 in prewarmed (37° C.) assay buffer (1×HBSS, 20 mM HEPES, 2.5 mM probenecid, pH 7.4 at 37° C.). Growth medium was removed, and the cells were gently washed with 100 μL of prewarmed (37° C.) assay buffer. […] After the pretreatment incubation period, the plate was read with a FLIPR Tetra (Molecular Devices, CA). […] Relative fluorescence units (RFU) were plotted against the log of compound concentrations. Data were fit to a three-parameter logistic curve to generate IC50 values (GraphPad Prism 6.0, CA). […] Test compound RFUs were compared to the CP55,940 Emax RFUs to generate % Emax values.
In these assays, CHO cells that overexpress the promiscuous Gα16 protein were engineered to stably express the CB1 or CB2 receptor. Compounds were evaluated for their ability to decrease the mobilization of intracellular calcium levels stimulated by CP55,940.

human CB1 receptor [2] = biological target: T1, human CB1 receptor; test: CB1 calcium mobilization assay, agonist screen; type: cell-based; details: 10,000 nM final concentration, mean ± SD
Method: CHO-RD-HGA16 cells (Molecular Devices, CA) stably expressing the human CB1 receptor were plated into 96-well black-walled assay plates at 25,000 cells/well in 100 μL of Ham's F12 (supplemented with 10% fetal bovine serum, 100 units of penicillin/streptomycin, and 100 μg/mL Normocin) and incubated overnight at 37° C., 5% CO2. Calcium 5 dye (Molecular Devices, CA) was reconstituted according to the manufacturer's instructions. The reconstituted dye was diluted 1:40 in prewarmed (37° C.) assay buffer (1×HBSS, 20 mM HEPES, 2.5 mM probenecid, pH 7.4 at 37° C.). Growth medium was removed, and the cells were gently washed with 100 μL of prewarmed (37° C.) assay buffer. The cells were incubated for 45 min at 37° C., 5% CO2 in 200 μL of the diluted Calcium 5 dye solution. […] Serial dilutions of the test compounds were prepared at 10× the desired final concentration in 2.25% BSA/4.5% DMSO/4.5% EtOH/assay buffer. After the dye loading incubation period, the cells were pretreated with 25 μL of the test compound serial dilutions and incubated for 15 min at 37° C. After the pretreatment incubation period, the plate was read with a FLIPR Tetra (Molecular Devices, CA). Calcium-mediated changes in fluorescence were monitored every 1 s over a 90 s time period, with the Tetra adding 25 μL of the CP55,940 EC80 concentration at the 10s time point (excitation/emission: 485/525 nm). Relative fluorescence units (RFU) were plotted against the log of compound concentrations. Data were fit to a three-parameter logistic curve to generate IC50 values (GraphPad Prism 6.0, CA). […] For agonist screens, the above procedure was followed except that cells were pretreated with 2.25% BSA/4.5% DMSO/4.5% EtOH/assay buffer and the Tetra added single concentration dilutions of the test compounds prepared at 10× the desired final concentration in 0.25% BSA/0.5% DMSO/0.5% EtOH/assay buffer. Test compound RFUs were compared to the CP55,940 Emax RFUs to generate % Emax values.

CB1 receptor = biological target: T2, CB1 receptor (Mus musculus, UniProt P47746); test: [35S]GTP-γ-S binding assay in mouse cerebellar membranes, CP55,940-stimulated; type: biochemical; details: CP55,940 (100 nM) stimulation, mean (95% confidence interval)
T2 construct: from tissue; host or cells: cerebellar membranes of adult male CD-1 mice
T2 sequence (P47746 whole entry): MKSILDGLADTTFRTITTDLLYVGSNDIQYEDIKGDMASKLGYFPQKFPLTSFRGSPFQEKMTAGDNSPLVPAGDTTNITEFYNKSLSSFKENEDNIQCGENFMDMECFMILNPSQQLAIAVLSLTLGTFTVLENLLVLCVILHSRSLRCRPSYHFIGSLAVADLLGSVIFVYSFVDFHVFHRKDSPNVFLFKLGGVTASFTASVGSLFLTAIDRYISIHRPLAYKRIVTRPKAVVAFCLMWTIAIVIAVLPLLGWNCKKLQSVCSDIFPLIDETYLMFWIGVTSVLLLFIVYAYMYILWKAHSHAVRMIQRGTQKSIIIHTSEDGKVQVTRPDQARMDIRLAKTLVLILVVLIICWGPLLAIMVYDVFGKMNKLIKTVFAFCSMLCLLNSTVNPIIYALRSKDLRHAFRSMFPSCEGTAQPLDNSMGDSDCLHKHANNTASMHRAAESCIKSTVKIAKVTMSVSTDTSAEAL
Method: Cerebella from adult male CD-1 mice were dissected on ice, snap frozen, and stored at −80° C. until the day of the experiment. Cerebella were homogenized by polytron in membrane buffer (50 mM Tris, 3 mM MgCl2, 0.2 mM EGTA, 100 mM NaCl, pH 7.4) on ice, centrifuged for 10 min at 40,000×g at 4° C. The supernatant was discarded and the pellet was suspended in membrane buffer, homogenized, and centrifuged again for 10 min at 40,000×g. The pellet was resuspended in membrane buffer and protein quantified by Bradford method.
CB1 receptor agonist CP55,940 was employed as the agonist probe.

[3] = Table 1, against EC80 (100 nM) of CP55,940, mean ± S.E.M., read-out: CB1 calcium assay IC50

| SMILES | IC50 (human CB1 receptor [1]; [3]) [µM] | CB1 calcium assay Agonist screen (% CP55, 940 Emax) (human CB1 receptor [2]; Table 1) | IC50 (CB1 receptor) [µM] | other results |
| --- | --- | --- | --- | --- |
| COc1cccc(-c2cccc(NC(=O)Nc3ccc(Cl)cc3)c2)n1 [Compound 15, 3-(4-Chlorophenyl)-1-[3-(6-methoxypyridin-2-yl)phenyl]urea] | 0.231 ± 0.014 | 2.4 ± 0.2 % CP55, 940 Emax |  |  |
| Cc1ccnc(-c2cccc(NC(=O)Nc3ccc(Cl)cc3)c2)c1 [Compound 16, 3-(4-Chlorophenyl)-1-[3-(4-methylpyridin-2-yl)phenyl]urea] |  | 2.9 ± 0.1 % CP55, 940 Emax |  |  |
| COc1cc(-c2cccc(NC(=O)Nc3ccc(Cl)cc3)c2)ccn1 [Compound 17, 3-(4-Chlorophenyl)-1-[3-(2-methoxypyridin-4-yl)phenyl]urea] | 0.133 ± 0.006 | 23.4 ± 1.9 % CP55, 940 Emax | 1.32 |  |
| O=C(Nc1ccc(Cl)cc1)Nc1cccc(-c2ccccn2)c1 [Compound 18, 3-(4-Chlorophenyl)-1-[3-(pyridin-2-yl)phenyl]urea] | 0.047 ± 0.013 | 8.8 ± 3.1 % CP55, 940 Emax | 2.65 |  |
| O=C(Nc1ccc(Cl)cc1)Nc1cccc(-c2cccnc2)c1 [Compound 19, 3-(4-Chlorophenyl)-1-[3-(pyridin-3-yl)phenyl]urea] | 0.244 ± 0.045 | 34.2 ± 9.3 % CP55, 940 Emax |  |  |
| O=C(Nc1ccc(Cl)cc1)Nc1cccc(-c2cncnc2)c1 [Compound 21, 3-(4-Chlorophenyl)-1-[3-(pyrimidin-5-yl)phenyl]urea] | 0.29 ± 0.024 | 2.5 ± 6.2 % CP55, 940 Emax |  |  |
| O=C(Nc1ccc(Cl)cc1)Nc1cccc(-c2ccccc2)c1 [Compound 22, 3-(4-Chlorophenyl)-1-(3-phenylphenyl)urea] | 0.032 ± 0.007 | 5.1 ± 0.8 % CP55, 940 Emax | 0.437 |  |
| COc1cccc(-c2cccc(NC(=O)Nc3ccc(Cl)cc3)c2)c1 [Compound 23, 3-(4-Chlorophenyl)-1-[3-(3-methoxyphenyl)phenyl]urea] | 0.081 ± 0.01 | 12.5 ± 1.9 % CP55, 940 Emax | 0.827 |  |
| O=C(Nc1ccc(Cl)cc1)Nc1cccc(-c2cccc(O)c2)c1 [Compound 24, 3-(4-Chlorophenyl)-1-[3-(3-hydroxyphenyl)phenyl]urea] | 0.84 ± 0.13 | 9.8 ± 1.6 % CP55, 940 Emax |  |  |
| O=C(Nc1ccc(Cl)cc1)Nc1cccc(-c2ccc3c(c2)OCO3)c1 [Compound 26, 1-[3-(2H-1,3-Benzodioxol-5-yl)phenyl]-3-(4-chlorophenyl)urea] | 0.07 ± 0.014 | 9.8 ± 3.5 % CP55, 940 Emax | 0.619 |  |
| Cc1cccc(-c2cccc(NC(=O)Nc3ccc(Cl)cc3)c2)c1 [Compound 27, 3-(4-Chlorophenyl)-1-[3-(3-methylphenyl)phenyl]urea] |  |  | 0.456 |  |
| Cc1ccccc1-c1cccc(NC(=O)Nc2ccc(Cl)cc2)c1 [Compound 28, 3-(4-Chlorophenyl)-1-[3-(2-methylphenyl)phenyl]urea] | 0.19 ± 0.045 | 4.4 ± 2.7 % CP55, 940 Emax |  |  |
| O=C(Nc1ccc(Cl)cc1)Nc1cccc(-c2cccc([N+](=O)[O-])c2)c1 [Compound 29, 3-(4-Chlorophenyl)-1-[3-(3-nitrophenyl)phenyl]urea] | 0.027 ± 0.002 |  | 0.452 |  |
| O=C(Nc1ccc(Cl)cc1)Nc1cccc(-c2ccc(Cl)cc2)c1 [Compound 30, 3-(4-Chlorophenyl)-1-[3-(4-chlorophenyl)phenyl]urea] | 0.095 ± 0.009 | 21.3 ± 3.7 % CP55, 940 Emax |  |  |
| O=C(Nc1ccc(Cl)cc1)Nc1cccc(-c2c(Cl)cccc2Cl)c1 [Compound 33, 3-(4-Chlorophenyl)-1-[3-(2,6-dichlorophenyl)phenyl]urea] | 0.338 ± 0.019 | 17.2 ± 3.1 % CP55, 940 Emax |  |  |
| O=C(Nc1ccc(Cl)cc1)Nc1cccc(-c2ccc(F)cc2F)c1 [Compound 35, 3-(4-Chlorophenyl)-1-[3-(2,4-difluorophenyl)phenyl]urea] | 0.018 ± 0.001 |  | 0.353 |  |
| CC(C)(C)c1ccc(-c2cccc(NC(=O)Nc3ccc(Cl)cc3)c2)cc1 [Compound 36, 3-(4-Chlorophenyl)-1-[3-(4-tert-butylphenyl)phenyl]urea] | 0.591 ± 0.048 | 4.0 ± 1.0 % CP55, 940 Emax |  |  |
| CC(C)(C)c1cc(-c2cccc(NC(=O)Nc3ccc(Cl)cc3)c2)cc(C(C)(C)C)c1 [Compound 37, 3-(4-Chlorophenyl)-1-[3-(3,5-di-tert-butylphenyl)phenyl]urea] | 0.46 ± 0.039 | 10.4 ± 2.1 % CP55, 940 Emax |  |  |
| O=C(Nc1ccc(Cl)cc1)Nc1cccc(-c2ccc(-c3ccccc3)cc2)c1 [Compound 39, 3-(4-Chlorophenyl)-1-[3-(4-phenylphenyl)phenyl]urea] | 1.34 ± 0.37 | −0.7 ± 2.4 % CP55, 940 Emax |  |  |

| SMILES | IC50 (human CB1 receptor [1]; [3]) [µM] | CB1 calcium assay Agonist screen (% CP55, 940 Emax) (human CB1 receptor [2]; Table 1) | IC50 (CB1 receptor) [µM] | other results |
| --- | --- | --- | --- | --- |
| O=C(Nc1ccc(Cl)cc1)Nc1cccc(-c2ccc(C(=O)c3ccccc3)cc2)c1 [Compound 40, 3-(4-Chlorophenyl)-1-[3-(4-benzoylphenyl)phenyl]urea] |  | 12.9 ± 1.7 % CP55, 940 Emax |  |  |
| O=C(Nc1ccc(Cl)cc1)Nc1cccc(-c2ccc3ccccc3c2)c1 [Compound 42, 3-(4-Chlorophenyl)-1-[3-(naphthalen-2-yl)phenyl]urea] |  | 6.9 ± 0.5 % CP55, 940 Emax | 1.52 |  |
| O=C(Nc1ccc(Cl)cc1)Nc1cccc(-c2ccc3ccccc3n2)c1 [Compound 43, 3-(4-Chlorophenyl)-1-[3-(quinolin-2-yl)phenyl]urea] |  | 4.5 ± 0.7 % CP55, 940 Emax | 1.89 |  |
| O=C(Nc1ccc(Cl)cc1)Nc1cccc(-c2ccc3c(c2)Cc2ccccc2-3)c1 [Compound 45, 3-(4-Chlorophenyl)-1-[3-(9H-fluoren-2-yl)phenyl]urea] | 1.26 ± 0.16 | −0.1 ± 0.1 % CP55, 940 Emax |  |  |
| O=C(Nc1ccc(Cl)cc1)Nc1cccc(-c2ccoc2)c1 [Compound 46, 3-(4-Chlorophenyl)-1-[3-(furan-3-yl)phenyl]urea] | 0.041 ± 0.009 |  | 0.44 |  |
| O=C(Nc1ccc(Cl)cc1)Nc1ccc(-c2ccccc2)cc1 [Compound 59, 3-(4-Chlorophenyl)-1-(4-phenylphenyl)urea] |  |  |  | IC50 (human CB1 receptor [1]; Table 2, against EC80 (100 nM) of CP55,940, mean ± S.E.M., read-out: CB1 calcium assay IC50): 0.066 ± 0.009 µM; CB1 calcium assay Agonist screen (% CP55, 940 Emax) (human CB1 receptor [2]; Table 2): 21 ± 4 % CP55, 940 Emax |
| O=C(Nc1ccc(Cl)cc1)Nc1cccc(N2CCCCC2)c1 [Compound 76, 3-(4-Chlorophenyl)-1-[3-(piperidin-1-yl)phenyl]urea] | 0.174 ± 0.031 | 1.1 ± 0 % CP55, 940 Emax |  |  |
| O=C(Nc1ccc(Cl)cc1)Nc1cccc(N2CCOCC2)c1 [Compound 77, 1-(4-Chlorophenyl)-3-[3-(morpholin-4-yl)phenyl]urea] | 0.36 ± 0.064 | 12.4 ± 1.8 % CP55, 940 Emax |  |  |
| O=C(Nc1ccc(Cl)cc1)Nc1cccc(N2CCCC2)c1 [Compound 78, 1-(4-Chlorophenyl)-3-[3-(pyrrolidin-1-yl)phenyl]urea] | 0.04 ± 0.004 | 0.6 ± 0.5 % CP55, 940 Emax |  |  |
| CN1CCN(c2cccc(NC(=O)Nc3ccc(Cl)cc3)c2)CC1 [Compound 79, 1-(4-Chlorophenyl)-3-[3-(4-methylpiperazin-1-yl)phenyl]urea] | 2.88 | 27.6 ± 2.0 % CP55, 940 Emax |  |  |
| O=C(Nc1ccc(Cl)cc1)Nc1cccc(N2CCC2)c1 [Compound 80, 3-[3-(Azetidin-1-yl)phenyl]-1-(4-chlorophenyl)urea] | 0.035 ± 0.005 |  | 1.38 |  |
| O=C(Nc1ccc(Cl)cc1)Nc1cccc(N2CCC(F)(F)CC2)c1 [Compound 81, 3-(4-Chlorophenyl)-1-[3-(4,4-difluoropiperidin-1-yl)phenyl]urea] | 0.092 ± 0.009 | 14.0 ± 0.6 % CP55, 940 Emax |  |  |
| O=C(Nc1ccc(Cl)cc1)Nc1cccc(N2C3CCC2CC3)c1 [Compound 82, 3-(4-Chlorophenyl)-1-{3-[(1S,4S)-7-azabicyclo[2.2.1]heptan-7-yl]phenyl}urea] |  | 5.5 ± 1.3 % CP55, 940 Emax |  | IC50 (human CB1 receptor [1]): 2.7 µM |
| O=C(Nc1ccc(Cl)cc1)Nc1cccc(N2CCCCCC2)c1 [Compound 83, 1-[3-(Azepan-1-yl)phenyl]-3-(4-chlorophenyl)urea] | 0.35 ± 0.037 | 18.6 ± 1.1 % CP55, 940 Emax |  |  |
| CN(C)c1cccc(NC(=O)Nc2ccc(Cl)cc2)c1 [Compound 85, 1-(4-Chlorophenyl)-3-[3-(dimethylamino)phenyl]urea] | 0.113 ± 0.019 | 14.5 ± 4.9 % CP55, 940 Emax |  |  |
| CCN(CC)c1cccc(NC(=O)Nc2ccc(Cl)cc2)c1 [Compound 86, 3-(4-Chlorophenyl)-1-[3-(diethylamino)phenyl]urea] | 0.297 ± 0.037 | 20.9 ± 0.2 % CP55, 940 Emax |  |  |
| O=C(Nc1ccc(Cl)cc1)Nc1cccc(CN2CCCC2)c1 [Compound 90, 3-(4-Chlorophenyl)-1-[3-(pyrrolidin-1-ylmethyl)phenyl]urea] | > 10 | 27.5 ± 4.5 % CP55, 940 Emax |  |  |
| COc1cccc(NC(=O)Nc2ccc(Cl)cc2)c1 [Compound 91, 3-(4-Chlorophenyl)-1-(3-methoxyphenyl)urea] | 0.52 ± 0.036 | 13.6 ± 2.4 % CP55, 940 Emax |  |  |
| O=C(Nc1ccc(Cl)cc1)Nc1cccc(OC2CCCC2)c1 [Compound 95, 3-(4-Chlorophenyl)-1-[3-(cyclopentyloxy)phenyl]urea] | 0.277 ± 0.036 | 11.7 ± 1.4 % CP55, 940 Emax |  |  |
